Assay results: ChEMBL document CHEMBL4011618, “Discovery of Potent, Selective Stem Cell Factor Receptor/Platelet Derived Growth Factor Receptor Alpha (c-KIT/PDGFRα) Dual Inhibitor for the Treatment of Imatinib-Resistant Gastrointestinal Stromal Tumors (GISTs)” (J Med Chem, 2017)
Active and inactive are the calls of the source. No cut-off for these calls is given here.

Key:
[1] = target: Fibroblast growth factor receptor 1 (Homo sapiens, UniProt P11362); experiment: Inhibition of FGFR1 (unknown origin) using FAM-labeled peptide as substrate preincubated for 10 mins followed by substrate addition in presence of ATP by mobility shift assay
[2] = target: T1, Platelet-derived growth factor receptor alpha (Homo sapiens, UniProt P16234); experiment: Inhibition of PDGFRalpha (unknown origin) using FAM-labeled peptide as substrate preincubated for 10 mins followed by substrate addition in presence of ATP by mobility shift assay
T1 sequence (P16234 whole entry): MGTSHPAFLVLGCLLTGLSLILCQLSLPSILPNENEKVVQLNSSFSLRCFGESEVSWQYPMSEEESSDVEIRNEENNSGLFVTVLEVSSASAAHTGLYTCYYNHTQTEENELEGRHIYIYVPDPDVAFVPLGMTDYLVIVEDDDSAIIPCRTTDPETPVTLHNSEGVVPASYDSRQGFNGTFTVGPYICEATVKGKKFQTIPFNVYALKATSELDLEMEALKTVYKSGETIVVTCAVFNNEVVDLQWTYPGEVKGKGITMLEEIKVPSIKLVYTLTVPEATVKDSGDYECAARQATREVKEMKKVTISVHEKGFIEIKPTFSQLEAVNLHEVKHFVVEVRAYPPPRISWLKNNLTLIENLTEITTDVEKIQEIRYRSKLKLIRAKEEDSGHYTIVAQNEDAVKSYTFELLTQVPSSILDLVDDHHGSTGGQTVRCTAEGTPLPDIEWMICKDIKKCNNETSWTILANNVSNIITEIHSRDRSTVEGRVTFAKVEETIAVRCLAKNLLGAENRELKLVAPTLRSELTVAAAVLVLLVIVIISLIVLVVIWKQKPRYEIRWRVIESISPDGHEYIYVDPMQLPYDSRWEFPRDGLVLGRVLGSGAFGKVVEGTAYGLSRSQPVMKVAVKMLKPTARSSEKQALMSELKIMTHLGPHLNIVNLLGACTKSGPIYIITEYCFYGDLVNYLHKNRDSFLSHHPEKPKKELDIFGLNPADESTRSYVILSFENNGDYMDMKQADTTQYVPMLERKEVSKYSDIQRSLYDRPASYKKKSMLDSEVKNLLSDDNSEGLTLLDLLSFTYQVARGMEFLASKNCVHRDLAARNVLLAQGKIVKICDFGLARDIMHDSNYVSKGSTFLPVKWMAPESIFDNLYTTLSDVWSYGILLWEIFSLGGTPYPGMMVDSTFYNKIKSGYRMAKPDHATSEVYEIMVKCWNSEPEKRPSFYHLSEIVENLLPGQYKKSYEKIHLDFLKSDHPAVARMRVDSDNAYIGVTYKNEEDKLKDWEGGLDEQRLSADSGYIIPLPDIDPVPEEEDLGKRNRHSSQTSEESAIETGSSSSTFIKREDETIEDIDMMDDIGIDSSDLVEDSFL

[3] = target: T1, Platelet-derived growth factor receptor alpha
Description: Inhibition of TEL-fused PDGFRalpha (unknown origin) expressed in mouse BAF3 cells assessed as cell growth inhibition after 72 hrs by cell titer-glo assay

[4] = target: Platelet-derived growth factor receptor beta (Homo sapiens, UniProt P09619); experiment: Inhibition of PDGFRbeta (unknown origin) using FAM-labeled peptide as substrate preincubated for 10 mins followed by substrate addition in presence of ATP by mobility shift assay
[5] = target: Vascular endothelial growth factor receptor 3 (Homo sapiens, UniProt P35916); experiment: Inhibition of VEGFR3 (unknown origin) using FAM-labeled peptide as substrate preincubated for 10 mins followed by substrate addition in presence of ATP by mobility shift assay
[6] = target: Receptor-type tyrosine-protein kinase FLT3 (Homo sapiens, UniProt P36888); experiment: Inhibition of FLT3 (unknown origin) using FAM-labeled peptide as substrate preincubated for 10 mins followed by substrate addition in presence of ATP by mobility shift assay
[7] = target: Vascular endothelial growth factor receptor 1 (Homo sapiens, UniProt P17948); experiment: Inhibition of VEGFR1 (unknown origin) using FAM-labeled peptide as substrate preincubated for 10 mins followed by substrate addition in presence of ATP by mobility shift assay
Chain of Vascular endothelial growth factor receptor 1 (P17948 whole entry): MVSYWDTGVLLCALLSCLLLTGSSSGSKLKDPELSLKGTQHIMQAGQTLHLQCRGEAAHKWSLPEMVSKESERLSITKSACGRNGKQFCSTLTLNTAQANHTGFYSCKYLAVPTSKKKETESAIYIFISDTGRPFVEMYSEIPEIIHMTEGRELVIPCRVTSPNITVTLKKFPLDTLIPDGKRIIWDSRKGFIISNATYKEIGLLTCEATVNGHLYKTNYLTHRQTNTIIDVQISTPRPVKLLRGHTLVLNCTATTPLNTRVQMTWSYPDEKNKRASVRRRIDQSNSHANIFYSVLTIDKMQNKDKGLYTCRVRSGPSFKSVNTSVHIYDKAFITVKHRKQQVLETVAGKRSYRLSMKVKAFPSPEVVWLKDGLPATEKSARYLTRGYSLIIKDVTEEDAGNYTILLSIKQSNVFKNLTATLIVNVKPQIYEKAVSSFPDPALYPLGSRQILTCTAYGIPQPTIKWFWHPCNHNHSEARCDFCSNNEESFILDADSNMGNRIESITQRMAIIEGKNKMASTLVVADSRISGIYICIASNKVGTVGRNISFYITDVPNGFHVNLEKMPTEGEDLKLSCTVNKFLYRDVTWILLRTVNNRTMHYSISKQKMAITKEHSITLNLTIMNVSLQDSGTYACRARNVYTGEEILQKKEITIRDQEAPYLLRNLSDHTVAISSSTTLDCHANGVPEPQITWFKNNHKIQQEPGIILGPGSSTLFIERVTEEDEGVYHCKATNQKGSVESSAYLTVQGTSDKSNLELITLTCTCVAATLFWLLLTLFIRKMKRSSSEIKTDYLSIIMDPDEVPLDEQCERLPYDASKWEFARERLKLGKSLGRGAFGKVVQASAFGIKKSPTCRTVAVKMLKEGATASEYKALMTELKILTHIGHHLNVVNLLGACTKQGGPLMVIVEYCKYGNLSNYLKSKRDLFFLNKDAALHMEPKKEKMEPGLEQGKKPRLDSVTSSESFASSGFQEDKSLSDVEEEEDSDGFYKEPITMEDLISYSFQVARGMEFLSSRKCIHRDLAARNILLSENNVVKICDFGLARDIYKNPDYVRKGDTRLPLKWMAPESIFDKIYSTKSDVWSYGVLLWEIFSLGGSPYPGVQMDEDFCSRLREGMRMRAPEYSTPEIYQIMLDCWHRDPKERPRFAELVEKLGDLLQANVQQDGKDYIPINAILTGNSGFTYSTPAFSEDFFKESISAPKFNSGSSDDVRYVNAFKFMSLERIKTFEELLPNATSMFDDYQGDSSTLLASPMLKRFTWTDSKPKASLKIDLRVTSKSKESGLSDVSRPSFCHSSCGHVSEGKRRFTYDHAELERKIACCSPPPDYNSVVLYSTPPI

[8] = target: Vascular endothelial growth factor receptor 2 (Homo sapiens, UniProt P35968)
Description: Inhibition of VEGFR2 (unknown origin) using FAM-labeled peptide as substrate preincubated for 10 mins followed by substrate addition in presence of ATP by mobility shift assay

[9] = tested on: Mast/stem cell growth factor receptor Kit (Homo sapiens), P10721 [T670I]
Description: Inhibition of TEL-fused cKIT T670I mutant (unknown origin) expressed in mouse BAF3 cells assessed as cell growth inhibition after 72 hrs by cell titer-glo assay

[10] = target: T2, Mast/stem cell growth factor receptor Kit (Homo sapiens, UniProt P10721)
T2 sequence (P10721 whole entry): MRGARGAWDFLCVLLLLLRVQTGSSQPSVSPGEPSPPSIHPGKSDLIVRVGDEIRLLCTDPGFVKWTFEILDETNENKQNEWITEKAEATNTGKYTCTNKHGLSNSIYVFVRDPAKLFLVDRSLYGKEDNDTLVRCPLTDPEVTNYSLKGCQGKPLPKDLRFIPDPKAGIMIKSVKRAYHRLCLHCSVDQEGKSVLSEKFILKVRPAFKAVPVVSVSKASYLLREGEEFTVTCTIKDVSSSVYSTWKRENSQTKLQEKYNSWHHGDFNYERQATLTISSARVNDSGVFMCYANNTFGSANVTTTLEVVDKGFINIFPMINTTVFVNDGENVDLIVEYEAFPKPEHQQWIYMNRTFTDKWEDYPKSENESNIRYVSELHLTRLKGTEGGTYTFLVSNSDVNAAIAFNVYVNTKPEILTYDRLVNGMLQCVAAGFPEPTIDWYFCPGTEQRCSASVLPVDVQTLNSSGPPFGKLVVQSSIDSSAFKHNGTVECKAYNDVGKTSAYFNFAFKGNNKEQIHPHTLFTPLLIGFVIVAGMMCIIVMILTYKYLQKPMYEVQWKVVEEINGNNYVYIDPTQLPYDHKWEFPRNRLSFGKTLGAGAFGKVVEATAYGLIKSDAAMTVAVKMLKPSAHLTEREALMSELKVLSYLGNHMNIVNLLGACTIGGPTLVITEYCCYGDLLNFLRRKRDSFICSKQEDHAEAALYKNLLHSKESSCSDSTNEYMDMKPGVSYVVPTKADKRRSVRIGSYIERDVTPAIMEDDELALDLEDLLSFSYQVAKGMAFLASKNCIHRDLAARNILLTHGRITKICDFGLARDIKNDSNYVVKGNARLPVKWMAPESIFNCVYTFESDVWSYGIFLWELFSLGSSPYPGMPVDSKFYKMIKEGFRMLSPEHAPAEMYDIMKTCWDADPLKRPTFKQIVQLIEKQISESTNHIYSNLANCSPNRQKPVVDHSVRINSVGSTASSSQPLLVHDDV
Description: Inhibition of cKIT (unknown origin) using FAM-labeled peptide as substrate preincubated for 10 mins followed by substrate addition in presence of ATP by mobility shift assay

[11] = tested on: Platelet-derived growth factor receptor alpha (Homo sapiens), P16234 [T674I]
Chain of Platelet-derived growth factor receptor alpha (Homo sapiens), P16234 [T674I] (P16234 whole entry T674I): as the sequence (P16234 whole entry) above, with T674I counted along it
Description: Inhibition of TEL-fused PDGFRalpha T674I mutant (unknown origin) expressed in mouse BAF3 cells assessed as cell growth inhibition after 72 hrs by cell titer-glo assay

[12] = target: T2, Mast/stem cell growth factor receptor Kit; remark: listed apart in the source
Description: Inhibition of TEL-fused cKIT (unknown origin) expressed in mouse BAF3 cells assessed as cell growth inhibition after 72 hrs by cell titer-glo assay

[13] = tested on: Mast/stem cell growth factor receptor Kit (Homo sapiens), P10721 [L576P]
Description: Inhibition of TEL-fused cKIT L576P mutant (unknown origin) expressed in mouse BAF3 cells assessed as cell growth inhibition after 72 hrs by cell titer-glo assay

GIST882 = experiment: Antiproliferative activity against human GIST882 cells assessed as cell growth inhibition after 72 hrs by cell titer-glo assay; assay type: functional; settings: GIST882, 72 h
[14] = tested on: Mast/stem cell growth factor receptor Kit (Homo sapiens), P10721 [V559D,V654A]
MEG-01 = experiment: Antiproliferative activity against human MEG01 cells assessed as cell growth inhibition after 72 hrs by cell titer-glo assay; assay type: functional; settings: MEG-01, 72 h
GISTT1 [15] = experiment: Antitumor activity against human GISTT1 cells xenografted in nu/nu mouse assessed as tumor growth inhibition at 100 mg/kg, ip administered daily for 28 days relative to control; assay type: functional; settings: 672 h, read-out: TGI
[16] = tested on: Mast/stem cell growth factor receptor Kit (Homo sapiens), P10721 [C674S]
Description: Inhibition of TEL-fused cKIT C674S mutant (unknown origin) expressed in mouse BAF3 cells assessed as cell growth inhibition after 72 hrs by cell titer-glo assay

[17] = tested on: Mast/stem cell growth factor receptor Kit (Homo sapiens), P10721 [N822K]
Description: Inhibition of TEL-fused cKIT N822K mutant (unknown origin) expressed in mouse BAF3 cells assessed as cell growth inhibition after 72 hrs by cell titer-glo assay

GISTT1 [18] = experiment: Antiproliferative activity against human GISTT1 cells assessed as cell growth inhibition after 72 hrs by cell titer-glo assay; assay type: functional; settings: GISTT1, 72 h
BaF3 = settings: Mus musculus
Description: Antitumor activity against mouse BAF3 cells harboring TEL-cKIT-T670I mutant allografted in nu/nu mouse assessed as tumor growth inhibition at 100 mg/kg, ip administered daily for 11 days relative to control

[19] = Antiproliferative activity against human GIST48B cells assessed as cell growth inhibition after 72 hrs by cell titer-glo assay; assay type: functional
[20] = Antiproliferative activity against CHO cells assessed as cell growth inhibition after 72 hrs by cell titer-glo assay; assay type: cell-based, Cricetulus griseus; settings: chinese hamster
[21] = tested on: Mast/stem cell growth factor receptor Kit (Homo sapiens), P10721 [V654A]
Description: Inhibition of TEL-fused cKIT V654A mutant (unknown origin) expressed in mouse BAF3 cells assessed as cell growth inhibition after 72 hrs by cell titer-glo assay

[22] = Antiproliferative activity against mouse BAF3 cells assessed as cell growth inhibition after 72 hrs by cell titer-glo assay; assay type: cell-based
[23] = tested on: Mast/stem cell growth factor receptor Kit (Homo sapiens), P10721 [A829P]
Description: Inhibition of TEL-fused cKIT A829P mutant (unknown origin) expressed in mouse BAF3 cells assessed as cell growth inhibition after 72 hrs by cell titer-glo assay

[24] = Antiproliferative activity against CHL cells assessed as cell growth inhibition after 72 hrs by cell titer-glo assay; assay type: cell-based, Cricetulus griseus; settings: chinese hamster
KU812 cell line = experiment: Antiproliferative activity against human KU812 cells assessed as cell growth inhibition after 72 hrs by cell titer-glo assay; assay type: functional; settings: KU812, 72 h

## Cc1cccc(NC(=O)Nc2ccc(-c3ccnc4[nH]nc(C)c34)cc2)c1
[1]
  IC50: > 50000 nM
[2]
  IC50: 40 nM
[3]
  GI50: 10.4 nM
[4]
  IC50: 197 nM
[5]
  IC50: 376 nM
[6]
  IC50: 1880 nM
[7]
  IC50: 3490 nM
[8]
  IC50: 1230 nM
[9]
  GI50: 318 nM
[10]
  IC50: 2.1 nM
[11]
  GI50: 1170 nM
[12]
  GI50: 248 nM

## Cc1ccc(NC(=O)c2ccc(CN3CCN(C)CC3)cc2)cc1Nc1nccc(-c2cccnc2)n1 [IMATINIB]
[13]
  GI50: 45.1 nM
GIST882
  GI50: 20 nM
[14]
  GI50: 803 nM
MEG-01
  GI50: 45 nM
GISTT1 [15]
  inhibition in vivo at 100 mg/kg: 87.3%
[16]
  GI50: 24.9 nM
[17]
  GI50: 1470 nM
GISTT1 [18]
  GI50: 3 nM
BaF3
  TGI: inactive
[19]
  GI50: 6990 nM
[20]
  GI50 at 72 h: > 10000 nM
[21]
  GI50: 803 nM
[22]
  GI50 at 72 h: 4690 nM
[11]
  GI50: > 10000 nM
[23]
  GI50: 148 nM
[24]
  GI50 at 72 h: > 10000 nM
KU812 cell line
  GI50: 110 nM
